Laboratory results: US10238710B2, “Peptide having anti-inflammatory, osteogenic and hair growth promoting activities, and use of same” (CAREGEN CO., LTD., priority 2014, dated 2019)

Experiments:
[1] = system: DKK-1; experiment: Western blotting of DKK-1 with hair loss causing hormone DHT; format: cell-based, human; settings: HFDPC, 48 hours
Description: The cells were treated with DHT and the peptides for 48 hours, and then subjected to western blotting with respect to DKK-1 using specific antibodies, thereby observing the expression of DKK-1.
The human hair follicle dermal papilla cells were seeded on a 6-well plate at a density of 1×10^5 cells/well. The cells were stabilized by incubation overnight, and then treated with 5 μg/ml DHT (Sigma Aldrich) together with the peptides at different concentrations (1 μg/ml and 10 μg/ml) for 48 hours. The cells were treated with the cell lysis buffer to obtain a lysate, followed by protein quantification, and then western blotting was performed with respect to DKK-1 using anti-DKK-1 antibody (Santa Cruz Biotechnology, USA).

[2] = system: human hair follicle germinal matrix cells (HFGMC); experiment: Cell proliferation assay (SRB), HFGMC; format: cell-based; settings: 1, 10 and 50 μg/ml, 72 hours
Description: (§1) In order to observe the cell proliferation effect on human hair follicle dermal papilla cells, human hair follicle germinal matrix cells, and human umbilical vein endothelial cells, which are main hair cells, each type of cells were seeded on a 96-well plate at a density of 3×10^3 cells/well, followed by incubation under conditions of 37° C. and 5% CO2 for 24 hours. After the medium was exchanged with the same culture medium completely excluding serum, the cells were treated with the peptides at different concentrations (1 μg/ml, 10 μg/ml, and 50 μg/ml), followed by incubation under the same conditions for 72 hours. After the incubation supernatant was removed, the cells were immobilized using ethanol, and washed three times with phosphate buffer saline (PBS). The wash solution was removed, and the cells were stained through the treatment with colorimetric SRB solution. After the cells were sufficiently washed with 1% acetic acid, the cells were observed using a microscope to observe the state of living cells. The absorbance was read at UV light of 560 nm, thereby measuring the survival conditions of cells

[3] = system: IL-8; experiment: IL-8 ELISA in THP-1 cells treated with TNF-α; format: cell-based, human; settings: 10 μg/ml pre-treatment 30 minutes, 50 ng/ml TNF-α, 24 hours
Description: (§2) The human monocytes, THP-1 cells were seeded on a 24-well plate at a density of 2×10^6 cells/well. After incubation overnight, the cells were pre-treated with the samples at 10 μg/ml for 30 minutes, and treated with 50 ng/ml TNF-α, followed by incubation for 24 hours. The cell incubation medium was obtained, followed by centrifugation at 13,000 rpm for 10 minutes at 4° C., and then the supernatant was separated. ELISA was carried out using IL-1b and IL-8 ELISA kit (R&D system).

[4] = system: Phospho-PI3K; experiment: Western blotting using osteoblasts (PI3K phosphorylation); format: cell-based; settings: mouse osteoblast line, 50 μg/ml, 15 minutes
Description: The cells were treated with the peptides at 50 μg/ml for 15 minutes (positive control: HGF 50 ng/ml). The cells were treated with the cell lysis buffer to obtain a lysate, followed by protein quantification, and then western blotting was performed with respect to Phospho-PI3K (P-PI3K) using anti-pPI3K antibody (Santa Cruz Biotechnology, USA).

[5] = system: β-catenin; experiment: Western blotting of cell signaling material, β-catenin; format: cell-based, human; settings: HFDPC, 1 and 10 μg/ml, 30 minutes and 60 minutes
Description: (§3) In order to observe the changes in the phosphorylation of ERK and the expression of PI3K, which are main signaling materials involved in cell proliferation in the human hair follicle dermal papilla cells, the cells were treated with the peptides of the present invention for 30 minutes and 60 minutes, and then subjected to western blotting using specific antibodies, thereby observing the pERK and PI3K changes. The test was carried out using anti-pERK antibody (Santa Cruz Biotechnology, USA) and anti-pPI3K antibody (Santa Cruz Biotechnology, USA).
(§4) The cells were treated with the cell lysis buffer to obtain a lysate, followed by protein quantification, and then western blotting was performed with respect to Phospho-ERK (pERK), PI3K, and β-catenin.

[6] = system: Phospho-ERK (pERK); experiment: Western blotting of cell signaling material, ERK phosphorylation; format: cell-based, human; settings: HFDPC, 1 and 10 μg/ml, 30 minutes and 60 minutes
Description: as §3, §4

[7] = system: human hair follicle dermal papilla cells (HFDPC); experiment: Cell proliferation assay (SRB), HFDPC; format: cell-based; settings: 1, 10 and 50 μg/ml, 72 hours
Description: as §1

[8] = system: IGF-1; experiment: Western blotting of hair growth protein IGF-1; format: cell-based, human; settings: HFDPC, 0.1-50 μg/ml, 24 hours
Description: (§5) In order to observe the changes in the expression of IGF1, KGF, and Wnt3a, which are proteins involved in the development of hair roots in the human hair follicle dermal papilla cells, the cells were treated with the peptides of the present invention for 24 hours, and then subjected to western blotting using specific antibodies, thereby observing the changes in hair growth-related proteins.
(§6) The cells were stabilized by the incubation overnight, and then treated with the peptides at different concentrations (0.1-50 μg/ml) for 24 hours. The cells were treated with the cell lysis buffer to obtain a lysate, followed by protein quantification, and then western blotting was performed with respect to IGF-1, KGF, and Wnt3a.
(§7) The test was carried out using anti-IGF-1 antibody (Santa Cruz Biotechnology, USA), anti-KGF antibody (Santa Cruz Biotechnology, USA), and anti-Wnt3a antibody (Santa Cruz Biotechnology, USA).

[9] = system: Wnt3a; experiment: Western blotting of hair growth protein Wnt3a; format: cell-based, human; settings: HFDPC, 0.1-50 μg/ml, 24 hours
Description: as §5, §6, §7

[10] = system: TNFR; experiment: Receptor binding assay (TNFR), ELISA; settings: peptide coated 50 μg/25 μl, O.D. 450 nm, positive control TNF-α
[11] = biological target: T1, HGFR (Homo sapiens, UniProt P08581); experiment: Receptor binding assay (HGFR), ELISA; settings: peptide coated 50 μg/25 μl, O.D. 450 nm
T1 construct: purchased R&D Systems
T1 sequence (P08581 25-1390): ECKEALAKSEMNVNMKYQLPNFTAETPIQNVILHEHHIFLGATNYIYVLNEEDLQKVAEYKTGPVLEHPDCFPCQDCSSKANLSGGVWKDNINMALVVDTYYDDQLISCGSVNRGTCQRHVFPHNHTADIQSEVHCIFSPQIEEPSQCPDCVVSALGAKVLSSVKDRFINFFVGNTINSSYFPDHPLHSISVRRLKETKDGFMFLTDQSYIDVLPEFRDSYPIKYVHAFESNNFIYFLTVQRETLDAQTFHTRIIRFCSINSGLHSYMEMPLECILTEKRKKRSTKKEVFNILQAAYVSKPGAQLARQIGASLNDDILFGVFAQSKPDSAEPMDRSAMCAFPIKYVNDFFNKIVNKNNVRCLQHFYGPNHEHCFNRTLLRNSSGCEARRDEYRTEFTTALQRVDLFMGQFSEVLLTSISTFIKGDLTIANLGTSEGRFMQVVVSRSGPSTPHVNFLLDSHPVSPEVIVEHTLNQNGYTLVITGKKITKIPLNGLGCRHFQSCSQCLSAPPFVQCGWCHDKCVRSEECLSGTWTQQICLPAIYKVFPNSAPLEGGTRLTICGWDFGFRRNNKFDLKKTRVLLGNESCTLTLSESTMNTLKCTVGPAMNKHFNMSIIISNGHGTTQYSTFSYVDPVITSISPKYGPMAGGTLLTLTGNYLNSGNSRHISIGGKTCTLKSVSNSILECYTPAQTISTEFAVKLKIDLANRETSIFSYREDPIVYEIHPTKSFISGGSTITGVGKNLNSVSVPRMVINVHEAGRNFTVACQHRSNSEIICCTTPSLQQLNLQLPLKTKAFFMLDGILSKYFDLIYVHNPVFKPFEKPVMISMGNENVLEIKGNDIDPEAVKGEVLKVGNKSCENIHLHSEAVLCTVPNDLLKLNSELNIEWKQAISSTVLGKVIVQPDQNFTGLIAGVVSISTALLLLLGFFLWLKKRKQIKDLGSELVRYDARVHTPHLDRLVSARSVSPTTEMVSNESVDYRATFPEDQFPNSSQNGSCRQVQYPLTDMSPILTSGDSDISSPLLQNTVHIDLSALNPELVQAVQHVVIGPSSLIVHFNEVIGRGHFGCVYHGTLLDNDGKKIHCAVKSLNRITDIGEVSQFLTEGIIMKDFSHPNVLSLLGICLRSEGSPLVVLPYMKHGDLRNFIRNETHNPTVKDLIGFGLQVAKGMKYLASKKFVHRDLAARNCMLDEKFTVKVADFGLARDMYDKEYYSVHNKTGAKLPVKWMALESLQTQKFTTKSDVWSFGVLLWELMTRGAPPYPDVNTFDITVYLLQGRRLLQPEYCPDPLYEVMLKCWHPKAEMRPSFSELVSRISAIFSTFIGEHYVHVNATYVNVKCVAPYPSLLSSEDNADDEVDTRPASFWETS
Description: (§8) On an ELISA plate, 50 μg/25 μl peptide and 25 μl of a coating buffer (20 mM sodium phosphate pH 9.6) were added and mixed, and then incubated at 4° C. overnight. After washing three times with PBST (300 μl), the blocking with 200 μl of a blocking buffer (3% BSA) was carried out at room temperature for 2 hours. After washing three times with PBST (300 μl), HGFR (R&D Systems) was added at 0.5 μg/1 ml per well, followed by incubation at room temperature for 2 hours. After washing three times with PBST (300 μl), anti-human IgG-HRP was diluted at 1:1,000, which was then added at 100 μl per well, followed by incubation at room temperature for 2 hours. After washing three times with PBST (300 μl), 100 μl of TMB solution was added, followed by color development. 50 μl of a stop solution (3 N H2SO4) was added to stop the reaction, and then the absorbance was read at O.D. 450 nm.

[12] = system: IL-1β; experiment: IL-1β ELISA in THP-1 cells treated with TNF-α; format: cell-based, human; settings: 10 μg/ml pre-treatment 30 minutes, 50 ng/ml TNF-α, 24 hours
Description: as §2

[13] = system: KGF; experiment: Western blotting of hair growth protein KGF; format: cell-based, human; settings: HFDPC, 0.1-50 μg/ml, 24 hours
Description: as §5, §6, §7

[14] = system: Ha3-II and keratin 14; experiment: RT-PCR of keratinocyte differentiation markers in HaCaT cells; format: cell-based, human; settings: HaCaT, 0.1, 1 and 10 μg/ml, 24 hours
Description: The cells were treated with the peptides at different concentrations (0.1 μg/ml, 1 μg/ml, and 10 μg/ml), and then incubated in an incubator at 37° C. for 24 hours. […] RT-PCR was carried out using primers of respective markers (Ha3-II and keratin 14) and PCR pre-mix (Intron) to measure the changes in the expression of the markers.
Target-specific primer sequences used in PCR for keratinocyte differentiation markers were as follows: Ha3-II forward primer sequence, 5′-[…]-3′ and Ha3-II reverse primer, 5′-[…]-3′ (annealing temperature, 60° C.); Keratin14 forward primer sequence, 5′-[…]-3′ and Keratin14 reverse primer, 5′-[…]-3′ (annealing temperature, 60° C.)

[15] = system: PI3K; experiment: Western blotting of cell signaling material, PI3K; format: cell-based, human; settings: HFDPC, 1 and 10 μg/ml, 30 minutes and 60 minutes
Description: as §3, §4

[16] = system: human umbilical vein endothelial cells (HUVEC); experiment: Cell proliferation assay (SRB), HUVEC; format: cell-based; settings: 1, 10 and 50 μg/ml, 72 hours
Description: as §1

[17] = biological target: T2, BMPR-IB (Homo sapiens, UniProt O00238); experiment: Receptor binding assay (BMPR), ELISA; settings: peptide coated 50 μg/25 μl, O.D. 450 nm, positive control BMP4
T2 construct: purchased R&D Systems
T2 sequence (O00238 14-502): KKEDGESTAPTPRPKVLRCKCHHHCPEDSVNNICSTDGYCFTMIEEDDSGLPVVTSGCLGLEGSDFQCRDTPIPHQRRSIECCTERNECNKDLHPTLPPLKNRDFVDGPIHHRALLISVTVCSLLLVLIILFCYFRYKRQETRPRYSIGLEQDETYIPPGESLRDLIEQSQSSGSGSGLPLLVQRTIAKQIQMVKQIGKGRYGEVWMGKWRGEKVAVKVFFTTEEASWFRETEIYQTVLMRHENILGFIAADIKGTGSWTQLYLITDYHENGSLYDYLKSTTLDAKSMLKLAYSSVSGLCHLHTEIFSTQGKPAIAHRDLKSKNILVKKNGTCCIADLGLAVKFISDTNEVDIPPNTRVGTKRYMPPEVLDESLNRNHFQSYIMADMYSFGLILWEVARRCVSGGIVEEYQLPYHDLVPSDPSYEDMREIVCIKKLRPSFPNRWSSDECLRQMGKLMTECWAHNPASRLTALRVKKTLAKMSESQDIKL
Description: as §8, with “In” for “On”, “BMPR-IB” for “HGFR”, “determined” for “read”

[18] = system: Phospho-smad1/5/8; experiment: Western blotting using osteoblasts (Smad1/5/8 phosphorylation); format: cell-based; settings: mouse osteoblast line, 50 μg/ml, 15 minutes and 30 minutes
Description: The cells incubated overnight were incubated in a serum-free medium for 24 hours, and then treated with the peptide at 50 μg/ml for 15 minutes and 30 minutes (positive control; BMP4 50 ng/ml). The cells were treated with the cell lysis buffer to obtain a lysate, followed by protein quantification, and then western blotting was performed with respect to Phospho-smad1/5/8 (P-smad1/5/8) using anti-p-smad1/5/8 antibody (Santa Cruz Biotechnology, USA).

Molecule: C[C@]12CCC(=O)C[C@@H]1CC[C@@H]1[C@@H]2CC[C@]2(C)[C@@H](O)CC[C@@H]12 [DHT, dihydrotestosterone, reference compound]
- expression of DKK-1 ([1]; treatment with DHT 5 μg/ml alone): increased

Molecule: NH2-Ala-Cys-Asp-Gly-Arg-Thr-Gln-Ala-Leu-Cys-COOH (H-ACDGRTQALC-OH; cysteine pairing not given here) [SEQ ID NO: 3]
- cell proliferation, HFGMC [2]: increased in a concentration-dependent manner
- expression of IL-8 increased by TNF-α treatment [3]: inhibited
- phosphorylation of PI3K by HGFR signal stimulation [4]: increased
- expression of β-catenin [5]: increased
- phosphorylation of ERK [6]: increased
- expression of DKK-1 increased by DHT ([1]; 5 μg/ml DHT together with peptide 1 and 10 μg/ml): reduced
- cell proliferation, HFDPC [7]: increased in a concentration-dependent manner
- expression of IGF-1 [8]: increased
- expression of Wnt3a [9]: increased
- binding affinity to TNFR [10]: high binding affinity
- binding affinity on HGFR [11]: high binding affinity
- expression of IL-1β increased by TNF-α treatment [12]: inhibited
- expression of KGF [13]: increased
- mRNA expression levels of differentiation markers Ha3-II and keratin 14 [14]: keratinocyte differentiation promoting effect
- level of PI3K [15]: increased
- cell proliferation, HUVEC [16]: increased in a concentration-dependent manner

Molecule: NH2-Ala-Cys-Phe-Thr-Arg-Thr-Ser-His-Ala-Cys-COOH (H-ACFTRTSHAC-OH; cysteine pairing not given here) [SEQ ID NO: 2]
- expression of IL-8 increased by TNF-α treatment [3]: inhibited
- binding affinity on BMPR [17]: high binding affinity
- phosphorylation of Smad1/5/8 by BMPR signal stimulation [18]: increased
- binding affinity to TNFR [10]: high binding affinity
- expression of IL-1β increased by TNF-α treatment [12]: inhibited
